Here are results for 14 compounds from PubChem BioAssay (NCI).

What all share (assay): NCI-60 cell line screen, 48 h
The test system of assay [1] is CAKI-1 renal.
The subject of assay [2] is NCI-H460 lung.
Assay [3] relates to OVCAR-5 ovarian.
For assay [4], the system named is HCT-15 colon.
Assay [5] relates to SK-OV-3 ovarian.
Assay [6] has as its system HCC-2998 colon.
The test system of assay [7] is NCI-H522 lung.
For assay [8], the system named is A549 NSCLC.
Assay [9] deals with 786-0 renal.
Assay [10] relates to SK-MEL-5 melanoma.
Assay [11] has as its system HL-60(TB) leukemia.

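Interpolation was linear, between the two tested concentrations surrounding the appropriate level; five concentrations were tested over 48 hours in 96-well plates. GI50 marks 50% less growth. TGI marks complete inhibition of growth.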 Some results are limits rather than exact numbers.

As to `Cc1ccc(Nc2cc(=O)[nH]c(=O)[nH]2)cc1CS`, the TGI in [1], in [2], in assay [3], in [4], in [5] and in [6] was greater than 100 µM throughout. In addition, the TGI in assay [7], in [8], in [9] and in assay [10] was greater than 100 µM each time.

Turning to `Cc1ccc(Cc2nn(C)c(=O)n2-n2cccc2)cc1`, the TGI in assay [1], in assay [2], in [3], in [4], in assay [5] and in assay [6] was greater than 100 µM throughout. For the same compound, the TGI in assay [7], in assay [8], in assay [9] and in assay [10] was greater than 100 µM each time.

For the compound `O=C1NCC2(CCNCC2)N1`, the TGI in assay [2], in assay [11], in assay [3], in assay [4], in assay [5] and in [6] was greater than 100 µM in each case. The TGI in [8], in assay [9] and in [10] was greater than 100 µM throughout.

Take `COC(=O)c1cn(CCCCO)nn1`: the TGI in [1], in assay [2], in [4], in assay [6], in assay [8] and in assay [9] was greater than 100 µM in each case. The compound further yielded a TGI in assay [10] greater than 100 µM.

Take `OCCN1CCN(c2nc(Nc3ccc(-c4nc5ccccc5[nH]4)cc3)c3cn[nH]c3n2)CC1`: the GI50 was 1.72 µM in assay [1]; 1.83 µM in assay [3]; 1.15 µM in assay [4]; 1.74 µM in [6]; 1.75 µM in assay [10]. Moreover, the TGI came out at 3.13 µM in assay [1]; 3.26 µM in assay [3]; 2.5 µM in [4]; 3.33 µM in assay [6]; 3.15 µM in assay [10].

Turning to `CCC(C)C(NC(=O)c1c2ccccc2nc2ccccc12)C(=O)O` (stereo not drawn), the TGI in [1], in assay [2], in assay [3], in assay [4], in [5] and in assay [6] was greater than 100 µM in each case. Also, the TGI in [7], in [8], in assay [9] and in assay [10] was greater than 100 µM each time.

As to `COC(=O)C1=C(OC(=O)/C(=C/c2c(F)cccc2F)c2ccccc2)C(C(=O)OC)[C@@]2(O)[C@@H](C(=O)OC)[C@H](C)C[C@@H]1[C@@H]2C(=O)OC` (stereo partly drawn), the TGI in [1], in assay [2], in [11], in assay [3], in assay [4] and in assay [5] was greater than 100 µM in each case. Besides, the TGI in assay [7], in assay [8] and in [9] was greater than 100 µM in each case.

Regarding `CCCCCCCSCC1OC(n2cnc3c(N)ncnc32)C(O)C1O` (stereo not drawn), the TGI in assay [1] was 19.5 µM; in assay [2], 42.1 µM; in assay [11] it was 27.3 µM; in assay [3], greater than 100 µM; in assay [4], 22.7 µM; in [6] it was 66.9 µM. In addition, the TGI in assay [8] is greater than 100 µM; in assay [10], 30.8 µM.

On to `CCCCC1=CC1(C#N)[N+](=O)[O-]` (stereo not drawn), for which the TGI in assay [1], in assay [2], in assay [3], in assay [4], in assay [5] and in assay [6] was greater than 100 µM in each case. The TGI in assay [7], in [8], in [9] and in assay [10] was greater than 100 µM throughout.

On to `O=C1c2ccccc2-n2c1nc1cc(Cl)ccc1c2=O`, for which the TGI in [1], in [2], in [3], in assay [4], in assay [5] and in [6] was greater than 100 µM in each case. The TGI in assay [7] was greater than 100 µM; in [8] it was greater than 100 µM; in [9], greater than 100 µM; in assay [10] it was 76.4 µM.

With `C=CCCCCn1c2ccccc2c2c(C)c3c[n+](C)ccc3c(C)c21`, the TGI is 39 µM in [1]; 0.921 µM in [11]; 3.26 µM in assay [3]; 3.2 µM in [5]; 0.608 µM in assay [7]; 4.52 µM in [8]. Besides, the TGI in assay [10] came out at 1.36 µM.

With `C[N+]1(CCCC[N+]2(C)CCCCCCC2)CCCCCCC1`, the TGI in assay [1], in assay [2], in assay [11], in assay [3], in [4] and in assay [7] was greater than 100 µM throughout. The TGI in assay [8], in assay [9] and in assay [10] was greater than 100 µM each time.

In the case of `c1ccc(C2=NN[C@H](c3cn(-c4ccccc4)nc3-c3ccccc3)C2)cc1`, the GI50 was 4.26 µM in assay [2]; greater than 100 µM in assay [11]; greater than 100 µM in assay [4]; 2.04 µM in assay [5]; greater than 100 µM in assay [6]; 4.02 µM in assay [8]. Moreover, the GI50 in [10] was 7.66 µM. The TGI was greater than 100 µM in assay [2]; greater than 100 µM in assay [11]; greater than 100 µM in [4]; 4.52 µM in assay [5]; greater than 100 µM in assay [6]; greater than 100 µM in assay [8]. In addition, the TGI in assay [10] was greater than 100 µM.

For the compound `CCCCCCCCCCCCCCCCNc1ccc2c(c1)OCCOCCOCCOCCO2`, the TGI in assay [1] is 13.6 µM; in [2] it was 10.7 µM; in [11] it was 6.16 µM; in assay [3], 14.2 µM; in assay [4], 13.5 µM; in assay [5], 9.49 µM. Also, the TGI in [7] was found to be 8.68 µM; in [8] it was 14.5 µM; in assay [9], 13.8 µM; in assay [10], 5.22 µM.
